Source: patent publication US9682993B2, “Anticancer compounds” (ST. JUDE CHILDREN'S RESEARCH HOSPITAL, priority 2012, dated 2017)
Like-named read-outs stand apart in the source and are kept apart here.

Tests used:
JeKo1 = test: In vitro cytotoxicity analysis, JeKo1; assay type: cell-based; settings: Homo sapiens, JeKo-1
Text: The A549 lung cancer, WiDr colorectal cancer, MCF-7 breast cancer, PC-3 prostate cancer, and OVCAR-3 ovarian cancer cell lines were purchased from the American Type Culture Collection (ATCC, Manassas, Va.) and were maintained in growth media as recommended by the ATCC. The JeKo-1 and JVM-2 mantle cell lymphoma cell lines were purchased from the DSMZ (Brunswick, Germany) and were maintained in growth media as recommended by the vendor. The pediatric rhabdomyosarcoma Rh18 cell line was provided y Dr. P. Houghton (Ohio State University—Nationwide Children's Hospital, Columbus, Ohio) and were maintained in growth media as recommended by Dr. Houghton. All cell culture media were supplemented with L-glutamine and penicillin/streptomycin. All cells were grown under standard culture conditions in CO2 incubators, at 37° C., with 5% CO2, and 100% relative humidity.
Cell viabilities were determined by measuring the cleavage of (sodium 3′-[1-(phenylaminocarbonyl)-3,4-tetrazolium]-bis(4-methoxy-6-nitro)benzene sulfonic acid hydrate) (XTT) to a water-soluble orange formazan by mitochondrial dehydrogenase, following the manufacturer's instructions (Roche Applied Science, Indianapolis, Ind.). Briefly, cell lines were seeded at various cell densities depending on the cell type. The adherent cell lines were allowed to adhere overnight before compound addition, whereas the suspension cell lines were seeded the day of compound addition. Stock concentrations of the compounds were made in DMSO, diluted in culture media and subsequently added to the plates at various final concentrations, then incubated for 72 hours. After the incubation period, the XTT labeling reagent, containing the electron-coupling reagent, was added to each well and incubated for 4 hours. The absorbance of each well was then read at 490 nm with a reference wavelength of 690 nm using a VersaMax™ microplate reader (Sunnyvale, Calif.). Data are expressed as the percentage of growth compared to vehicle-treated cells, as calculated from absorbance and corrected for background absorbance.
Alternatively, cell lines were seeded in 100 μL cell culture medium in 96-well plates. Depending on the cell proliferation rate, cells were seeded at 4,000 to 6,000 cells/well. Suspension cell cultures were initiated with 20,000 cells/well. The cells were incubated overnight at 37° C., and then the drug treatments were started by adding 50 μL medium containing the corresponding drug dilution and DMSO. The final concentration of DMSO onto the cells was 0.5% v/v in all wells. The cells viability was determined using the CellTiter-Glo Luminescent Cell Viability Assay (Promega, Madison, Wis.). The CellTiter-Glo reagent was prepared according to the manufacturer's instructions, and then 50 μL reagent was added to each well for 1 h at rt. The luminescence was measured on an Envision Multilabel Plate Reader (PerkinElmer, Waltham, Mass.). The IC50 values were calculated from the dose-response curve analysis with GraphPad Prism 6.01 (GraphPad Software, La Jolla, Calif.) using the nonlinear regression model 4 Parameter Logistic. Nine concentrations were generated by 1:2 serial dilutions for each IC50 assay. Each drug concentration was evaluated in triplicate or quadruplicate.

[1] = Solubility in phosphate buffered saline (HPLC); assay type: physicochemical; settings: for solubility: aqueous buffer, read-out: Buffer Soluble
[2] = test system: cytotoxicity or splicing modulation; test: Rapid onset of cytotoxicity or splicing modulation; assay type: cell-based; settings: maximum cytotoxicity or splicing modulation within 5 hours of drug treatment
Description: The cell were seeded in of 100 μl of medium into 96-well plates (HeLa at 4×10^4 cell/well; SK_MEL_2 at 6×10^4 cell/well), they were allowed to attach overnight, and then treatments started by adding 50 μl of medium containing Sudemycin D6 to produce a final concentration of 1 μM and DMSO to 0.5% v/v final into the experimental well. Continuous drug treatments were run in the same plate, using concentrations of 0, 62.5, 125, 250, 500 & 1000 nM final. DMSO was added into all wells, including non-treated wells to 0.5% v/v final concentration. For wells where the drug was withdrawn, the medium was carefully aspirated after 1, 2, 3 and 4 hours after the addition of the drug, the cells were washed once with PBS and then 150 μl of fresh cell culture medium containing 0.5% v/v DMSO was added into all washed out wells. After 72 hours of the addition of drug, the cell viability was determined using CellTiter-Glo luminescent cell viability assay (Promega, Madison, Wis.), and Sudemycin D6 cytotoxicity was calculated as the percentage of cell proliferation inhibition against the control treatment DMSO.

[3] = Mouse plasma stability (HPLC); assay type: in vitro ADME; settings: mouse plasma at 37° C.
[4] = test system: MDM2 alternative splicing in Rh18 cells; test: In vitro alternative splicing assay (MDM2, RT-PCR); assay type: cell-based; settings: Rh18 cells, 8 h exposure; Table II
Description: Briefly, following an 8 h exposure of exponentially growing cells to drug, total RNA was isolated using TRIzol reagent (Invitrogen, Carlsbad, Calif.). Total RNA (1 μg) was used to convert the mRNA to cDNA by using random primers, Oligo(dT)16 and Omniscript Reverse Transcription Kit (Qiagen, Germantown, Md.). PCR analyses were performed using specific oligonucleotides (see Table I) and standard amplification protocols. PCR products were separated by agarose gel electrophoresis, visualized by ethidium bromide staining on an UV transilluminator, and recorded. PCR band sizes were calculated by comparing them to the standard EZ Load 100-bp PCR Molecular Ruler (BioRad Laboratories, Hercules, Calif.).

SK-MEL-2 = test: Drug combination assay, SK-MEL-2; assay type: cell-based; settings: for CI in SK-MEL-2 with compound 19: Combination Index at ED50, CalcuSyn 2.1, listed drug + compound 19
Description: (§1) Preliminary cytotoxic screenings for each drug used in drug combination assays were performed to determine their cytotoxic dose range. […] Eight concentrations were established by 1:3 serial dilutions of the single drugs and their combinations with the splicing modulators. All drug concentrations were evaluated in triplicate in 96-well cell culture plates. Assays of individual drugs and drug combinations were run on the same tissue culture plate. Cell viability was determined using the CellTiter-Glo reagent.
(§2) Luminescence data obtained from the cell viability determinations were formatted per the requirements of the analytical software (viability data range: >0 and <1). The formatted data were analyzed with the software CalcuSyn 2.1 (Biosoft, Cambridge, UK), which provides quantitative CI values for the drug interaction analyses (see ranges in Supplementary Table S2).

cell lines investigated = test: Drug combination assays, cell line not stated; assay type: cell-based
Description: as §1, §2

Sk-N-AS = test: Drug combination assay, Sk-N-AS neuroblastoma; assay type: cell-based; settings: neuroblastoma cell line SK-NA-S; CalcuSyn 2.1
Description: as §1, §2

[5] = listed drug combined with compound 19, Ineffective = drug IC50 much higher than 1 μM

CC(/C=C/[C@@H]1C[C@]2(CO2)CC(C)(C)O1)=C\C[C@H]1OC[C@@H](NC(=O)/C=C\[C@H](C)OC(=O)C(C)C)CO1
IC50 (JeKo1; Table II): 220 nM | solubility [1]: > 10 µM | Rapid Onset [2]: No | Plasma Stability [3]: No | MDM2 Splicing Effects [4]: Yes

NC(=O)NO [Hydroxyurea]
Interaction Type (SK-MEL-2): Ineffective

CNC(=O)O[C@@H](C)/C=C\C(=O)N[C@H]1CC[C@@H](C/C=C(C)/C=C/[C@@H]2C[C@]3(CO3)CC(C)(C)O2)CC1 [drawing 208]
IC50 (JeKo1; Table II): 22 nM | solubility [1]: > 10 µM | Rapid Onset [2]: Yes (“Yes” indicates maximum cytotoxicity or splicing modulation is seen within 5 hours of drug treatment.) | Plasma Stability [3]: Yes (“Yes” indicates mouse plasma stability is >5 hours in mouse plasma at 37 °C as determined by HPLC.) | MDM2 Splicing Effects [4]: Yes

CC(=O)O[C@H]1C(=O)[C@@]2(C)[C@H]([C@H](OC(=O)c3ccccc3)[C@]3(O)C[C@H](OC(=O)[C@H](O)[C@@H](NC(=O)c4ccccc4)c4ccccc4)C(C)=C1C3(C)C)[C@]1(OC(C)=O)CO[C@@H]1C[C@@H]2O [Taxol]
Interaction Type (SK-MEL-2; [5]): Antagonism (1.45-3.3)

Cc1ncc(C[n+]2csc(CCO)c2C)c(=O)[nH]1 [Oxythiamine]
Interaction Type (SK-MEL-2; [5]): Ineffective

CC(/C=C/[C@@H]1C[C@]2(CO2)CC(C)(C)O1)=C\C[C@H]1CC[C@@H](NC(=O)/C=C\[C@H](C)OC(=O)N(C)CCN(C)C)CC1
IC50 (JeKo1; Table II): 170 nM | solubility [1]: > 10 µM

COc1ccc(C2=N[C@@H](c3ccc(Cl)cc3)[C@@H](c3ccc(Cl)cc3)N2C(=O)N2CCNC(=O)C2)c(OC(C)C)c1 [Nutlin-3]
Interaction Type (SK-MEL-2; [5]): Ineffective

CC(/C=C/[C@@H]1C[C@]2(CO2)CC(C)(C)O1)=C\C[C@H]1CC[C@@H](NC(=O)/C=C\[C@H](C)OC(N)=O)CC1
IC50 (JeKo1; Table II): 100 nM

CC(/C=C/[C@@H]1C[C@]2(CO2)CC(C)(C)O1)=C\C[C@H]1OC[C@@H](NC(=O)/C=C\[C@H](C)OC(=O)NC(C)(C)C)CO1
IC50 (JeKo1; Table III): > 1000 nM

C/C(=C\C(=O)Nc1ccccc1C(=O)O)c1ccc2ccccc2c1 [BIBR 1532]
Interaction Type (SK-MEL-2): Ineffective

CC(C)C[C@H](NC(=O)[C@H](Cc1ccccc1)NC(=O)c1cnccn1)B(O)O [Bortezomib]
Interaction Type (SK-MEL-2; [5]): Antagonism (1.45-3.3)

Cn1c(=O)n(-c2ccc(C(C)(C)C#N)cc2)c2c3cc(-c4cnc5ccccc5c4)ccc3ncc21 [BEZ 235]
drug interaction with compound 19 (panel of 23 drugs) (cell lines investigated): strongest synergy | CI in SK-MEL-2 with compound 19 (SK-MEL-2): 0.21 | Interaction Type (SK-MEL-2; [5]): Strong | drug interaction with compound 19 (Sk-N-AS): strong synergism | drug interaction with compound 20 (Sk-N-AS): strong synergism

CC(=O)O[C@@H](C)/C=C\C(=O)N[C@H]1CC[C@@H](C/C=C(C)/C=C/[C@@H]2C[C@]3(CO3)CC(C)(C)O2)CC1
IC50 (JeKo1; Table II): 100 nM | Buffer Soluble [1]: No | Rapid Onset [2]: Yes (“Yes” indicates maximum cytotoxicity or splicing modulation is seen within 5 hours of drug treatment.) | Plasma Stability [3]: No | MDM2 Splicing Effects [4]: Yes

Cc1ccc(NC(=O)c2ccc(CN3CCN(C)CC3)cc2)cc1Nc1nccc(-c2cccnc2)n1 [Imatinib]
Interaction Type (SK-MEL-2; [5]): Antagonism (1.45-3.3)

CNC(=O)c1cc(Oc2ccc(NC(=O)Nc3ccc(Cl)c(C(F)(F)F)c3)cc2)ccn1 [Sorafenib]
drug interaction with compound 19 (panel of 23 drugs) (cell lines investigated): second strongest synergistic agent | CI in SK-MEL-2 with compound 19 (SK-MEL-2): 0.43 | drug interaction with compound 19 (Sk-N-AS): predominantly synergistic

CCCCCCCCCCCCNC(=O)NC1CCCCC1 [NCND]
cytotoxic effect of drug alone (cell lines investigated; single drug in combination assays): Neither AUDA nor NCND alone produced a cytotoxic effect | Interaction Type (SK-MEL-2; [5]): Slightly

CCCN(C)C(=O)O[C@@H](C)/C=C\C(=O)N[C@H]1CO[C@@H](C/C=C(C)/C=C/[C@@H]2C[C@]3(CO3)CC(C)(C)O2)OC1
IC50 (JeKo1; Table III): 610 nM

COC(=O)C[C@](O)(CCC(C)(C)O)C(=O)O[C@@H]1C(OC)=C[C@]23CCCN2CCc2cc4c(cc2[C@H]13)OCO4 [Harringtonine]
Interaction Type (SK-MEL-2; [5]): Antagonism (1.45-3.3)

O=C(O)c1nn(Cc2ccc(Cl)cc2Cl)c2ccccc12 [Lonidamine]
Interaction Type (SK-MEL-2; [5]): Ineffective

CC(/C=C/[C@@H]1C[C@]2(CO2)CC(C)(C)O1)=C\C[C@H]1OC[C@@H](NC(=O)/C=C\[C@H](C)OC(=O)N(C)C(C)(C)C)CO1
IC50 (JeKo1; Table III): 780 nM

COc1ccc2c(c1)/C(=C/c1cnc[nH]1)C(=O)N2 [SU 9516]
CI in SK-MEL-2 with compound 19 (SK-MEL-2): 0.83 | Interaction Type (SK-MEL-2; [5]): Antagonism (1.45-3.3)

Cc1[nH]c2ccccc2c1CCNCc1ccc(/C=C/C(=O)NO)cc1 [Panobinostat]
CI in SK-MEL-2 with compound 19 (SK-MEL-2): 0.76

COc1cccc2c1C(=O)c1c(O)c3c(c(O)c1C2=O)C[C@@](O)(C(=O)CO)C[C@@H]3O[C@H]1C[C@H](N)[C@H](O)[C@H](C)O1 [Doxorubicin]
Interaction Type (SK-MEL-2; [5]): Ineffective

O=c1[nH]cc(F)c(=O)[nH]1 [5-Fluorouracil]
Interaction Type (SK-MEL-2; [5]): Ineffective^a

COc1cc([C@@H]2c3cc4c(cc3[C@@H](O[C@@H]3O[C@@H]5CO[C@@H](C)O[C@H]5[C@H](O)[C@H]3O)[C@H]3COC(=O)[C@H]23)OCO4)cc(OC)c1O [Etoposide]
Interaction Type (SK-MEL-2): Ineffective

CC(/C=C/[C@@H]1C[C@]2(CO2)CC(C)(C)O1)=C\C[C@H]1OC[C@@H](NC(=O)/C=C\[C@H](C)OC(=O)N(C)C)CO1
IC50 (JeKo1; Table III): 300 nM

CCCCN(C)C(=O)O[C@@H](C)/C=C\C(=O)N[C@H]1CO[C@@H](C/C=C(C)/C=C/[C@@H]2C[C@]3(CO3)CC(C)(C)O2)OC1
IC50 (JeKo1; Table III): 690 nM

CC[C@@]1(O)C(=O)OCc2c1cc1n(c2=O)Cc2cc3ccccc3nc2-1 [Camptothecin]
CI in SK-MEL-2 with compound 19 (SK-MEL-2): 0.74 | Interaction Type (SK-MEL-2; [5]): Antagonism (1.45-3.3)

CC(/C=C/[C@@H]1C[C@]2(CO2)CC(C)(C)O1)=C\C[C@H]1OC[C@@H](NC(=O)/C=C\[C@H](C)OC(=O)N(C)C(C)C)CO1
IC50 (JeKo1; Table III): 700 nM

COc1cc(C2Oc3cc([C@H]4Oc5cc(O)cc(O)c5C(=O)[C@@H]4O)ccc3OC2CO)ccc1O (stereo partly drawn) [Silibinin]
CI in SK-MEL-2 with compound 19 (SK-MEL-2): 0.89 | Interaction Type (SK-MEL-2; [5]): Moderate

CO[C@@]12[C@H](COC(N)=O)C3=C(C(=O)C(C)=C(N)C3=O)N1C[C@@H]1N[C@@H]12 [Mitomycin C]
Interaction Type (SK-MEL-2): Ineffective
